Reference: article PMC5790914, “QStatin, a Selective Inhibitor of Quorum Sensing in Vibrio Species” (mBio, 2018)

Target: T1, SmcR (Vibrio vulnificus, UniProt Q9L8G8)
T1 construct: purified SmcR (dimer); SeMet-substituted SmcR for the crystals
Assay: ITC (two-sequential binding model; second Kd =[…]) and […] Å crystal structure of the soaked complex

T1 sequence (Q9L8G8 entry or part of it): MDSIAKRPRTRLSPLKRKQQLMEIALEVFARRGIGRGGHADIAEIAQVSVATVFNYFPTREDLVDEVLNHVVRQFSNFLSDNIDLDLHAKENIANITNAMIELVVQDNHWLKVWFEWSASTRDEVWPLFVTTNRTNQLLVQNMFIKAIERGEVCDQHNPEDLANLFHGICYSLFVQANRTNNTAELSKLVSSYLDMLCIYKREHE

Compound: O=S(=O)(c1ccc(Br)s1)n1cccn1 [377B6, 1-(5-bromothiophene-2-sulfonyl)-1H-pyrazole]
- Kd: 470 nM
